# In patent US20070254882A1, “Sulfamide Derivatives and Pharmaceutical Composition for Upregulation of Lipid Metabolism Comprising Same” (CRYSTAL GENOMICS, INC., priority 2004, published 2007):
# Experiments:
# ob/ob mice [1] = assay: Oral glucose tolerance test (OGTT) in ob/ob mice; assay type: in vivo; conditions: for total changes in the glucose concentration represented by AUC compared to the control group: 0-120 min, P<0.05, P<0.005 and P<0.01, FIG. 3b; for glucose concentration during the fast compared to the control group: ob/ob mice, 28 days, fasted 16 hours, P<0.05, FIG. 3c
# Method: (§1) In order to evaluate the anti-obesity activity of the inventive compound, B6.V-Lepob/J mice (laboratory animal team of Korea Research Institute of Chemical Technology) were used for tests and lean mice as a control. Ob/ob mice are model animals for insulin-independent diabetes, suitable for studying the effect of an anti-obesity drug.
# (§2) 42 mice weighing 38.6±1.4 g were selected randomly from a pool of ob/ob mice (7-9 weeks old), and divided into groups of 7 mice each. The test was carried out at a constant temperature (24±0.5° C.) and humidity (55±5%) using ventilation system (10-12 times/hour), under a specific pathogen free (SPF) condition created in an automatic on-off cycle of 12 hours.
# (§3) The groups were divided to a control group treated only with an excipient, a positive control group treated with fenofibrate, and test groups treated with each of the compounds of Examples 5, 62 and 65, at dosage 100 mg/10 ml/kg body weight. Each of the test and control compounds was diluted with 0.5% CMC to a concentration to match the above dosage, and administered orally using a syringe into the stomach twice a day (9:00 and 18:00) for a period of 4 weeks, and the following characteristics were measured.
# 4) Oral Glucose Tolerance Test (OGTT)
# 28 days after the administration, each of the experimental mice was fasted for 16 hours, 2 g/kg of glucose was administered thereto, a blood sample was collected from the ocular venous plexus thereof at 0, 15, 30, 60 and 120 min from the administration, and the glucose concentration and AUC (area under the curve, Skrumsager et al., J Clin Pharmacol. 43, 1244-1256, 2003) were determined.
# ob/ob mice [2] = assay: Anti-obesity test: lipid metabolism-related materials and glucose in blood of ob/ob mice; assay type: in vivo; conditions: 28 days; for GLU (glucose) / HDL (HDL-cholesterol) / LDL (LDL-cholesterol) / NEFA (free fatty acid) / TG (triglyceride): 100 mg/kg oral twice a day, fasted 16 hours, plasma
# Method: as §1, §2, §3
# 3) Measurement of Lipid Metabolism-Related Materials and Insulin Concentration in Blood
# 28 days after the administration, experimental mice were fasted for 16 hours, and the concentrations of lipid metabolism-related materials such as triglyceride, free fatty acid and cholesterol, and insulin in blood were measured. Specifically, a blood sample was collected from the ocular venous plexus of each mouse and centrifuged to separate plasma. The glucose (GLU), HDL-cholesterol (HDL), LDL-cholesterol (LDL), triglyceride (TG) and free fatty acid (NEFA) levels were measured by enzymatic assay using 2 kinds of Selectra (Vital Lab), an automatic biochemical analyzer, and the insulin concentration was measured by ELISA using an insulin detection kit (Shibayagi).
# human PPAR α = molecular target: T1, human PPAR α (Homo sapiens, UniProt Q07869); assay: Exogeneous PPAR α agonist assay (GAL4 DNA binding domain/PPAR α ligand binding domain, luciferase) in 293T cells; assay type: cell-based; parameters: scale not given here; conditions: 25 μM compound, 48 hours, luciferase activity increase relative to the control
# T1 construct: expressed in transfected cells; host or cells: HepG2 (ATCC HB-8065) or 293T cells (ATCC CRL-1573)
# T1 sequence (Q07869 239-466 limits assumed): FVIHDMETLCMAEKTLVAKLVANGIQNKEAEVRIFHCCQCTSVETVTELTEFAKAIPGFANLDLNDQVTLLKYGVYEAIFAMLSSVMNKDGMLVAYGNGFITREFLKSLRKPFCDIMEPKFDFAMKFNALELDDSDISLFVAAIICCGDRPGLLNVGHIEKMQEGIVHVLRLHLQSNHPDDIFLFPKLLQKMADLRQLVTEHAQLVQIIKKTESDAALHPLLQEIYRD
# Outline: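 HepG2 or 293T cells (2×10^4/well) lipofectamine-transfected 3 hours with PPAR α, UAS firefly-luciferase and Renilla-luciferase constructs. Compounds then added at 25 μM final and incubated 48 hours at 37° C. PPAR α activation measured as dual firefly/Renilla luciferase luminescence.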
# ob/ob mice [3] = assay: Anti-obesity test: feed intake in ob/ob mice; assay type: in vivo; conditions: 100 mg/kg oral twice a day, first week of the test, P<0.005, FIG. 1a
# Method: as §1, §2, §3
# 1) General Symptoms and Observation of Dead Animal
# The conditions, behavioral changes, addictive symptoms and the death rate were observed constantly during the test period.
# ob/ob mice [4] = assay: Anti-obesity test: dissection, fat weights in ob/ob mice; assay type: in vivo; conditions: ob/ob mice after completing all tests; for adiposity index (fat weight/(body weight—fat weight)): FIG. 4b; for total fat weight: P<0.01, P<0.005, FIG. 4a
# Method: as §1, §2, §3
# After completing all tests, each of the mice in test treated with the compounds of Examples 5 and 62 and the positive control group treated with fenofibrate was sacrificed, the whole blood, liver, muscle and white adipose tissue thereof were extracted. White adipose tissued was divided into visceral fat and subcutaneous fat, and the amounts of the total fats and liver tissue were weighed separately.
# ob/ob mice [5] = assay: Anti-obesity test: body weight measurement in ob/ob mice; assay type: in vivo; conditions: 100 mg/kg oral twice a day
# Method: as §1, §2, §3
# 2) Body Weight Measurement
# The average body weight of each group was measured every 3 days after the administration, and the changes in the average body weight and body weight gain (measured body weight—initial body weight) were analyzed.
Compound,total changes in the glucose concentration represented by AUC compared to the control group (ob/ob mice [1]; 2 g/kg glucose),glucose concentration during the fast compared to the control group (ob/ob mice [1]),GLU (glucose) (ob/ob mice [2]) [mg/dL],HDL (HDL-cholesterol) (ob/ob mice [2]) [mg/dL],LDL (LDL-cholesterol) (ob/ob mice [2]) [mg/dL],NEFA (free fatty acid) (ob/ob mice [2]) [UEq/l],TG (triglyceride) (ob/ob mice [2]) [mg/dL],GLU concentration compared to the control or positive control group (ob/ob mice [2]),Activity at 25 μM Step 1 293T cell (human PPAR α),daily feed intake compared to the control group (ob/ob mice [3]),weight of subcutaneous fat (ob/ob mice [4]),weight of visceral fat (ob/ob mice [4]),adiposity index (fat weight/(body weight—fat weight)) (ob/ob mice [4]),total fat weight (ob/ob mice [4]),other results
"Cc1oc(-c2ccc(C(F)(F)F)cc2)nc1COc1cccc(CN(CC(=O)O)S(=O)(=O)N(C)C)c1 [Example 5, [N—(N,N-dimethylamino)sulfonyl-N-[3-[[2-(4-trifluoromethylphenyl)-5-methyloxazol-4-yl]methoxy]benzyl]amino]acetic acid]",much lower,significantly low,218.1 ± 125.5,292.1 ± 24.7,24.3 ± 4.3,880 ± 273,47.3 ± 12.4,much lower,2,significantly reduced,reduced,reduced,reduced,low,LDL concentration (ob/ob mice [2]; P<0.05): low
"Cc1ccc(-c2nc(CCOc3cccc(CN(CC(=O)O)S(=O)(=O)N(C)C)c3)c(C)o2)cc1 [Example 62, [N—(N,N-dimethylamino)sulfonyl-N-[3-[2-[2-(4-methylphenyl)-5-methyloxazol-4-yl]ethoxy]benzyl]amino]acetic acid]",much lower,significantly low,190.4 ± 77.6,381.8 ± 40.1,37.8 ± 5.2,976 ± 238,37.9 ± 6.6,much lower,2,significantly reduced,reduced,reduced,reduced,low,"glucose concentration at 30 and 60 min after the glucose administration compared to the control group (ob/ob mice [1]; 2 g/kg glucose, P<0.01, P<0.05, FIG. 3a): significantly low; body weight effect compared to the positive control group treated with fenofibrate (ob/ob mice [5]): improved effect; change in the body weight gain compared to the control group (ob/ob mice [5]; at day 7 from the administration, P<0.01): evidently lower; change in the average body weight compared to the control group (ob/ob mice [5]; at day 10 from the administration, P<0.01, P<0.005): markedly reduced; HDL concentration (ob/ob mice [2]): high; triglyceride concentration compared to a control (ob/ob mice [2]; P<0.05): significantly lower"
